Among the test systems are COLO 205 colon; HCT-116 colon; HL-60(TB) leukemia; HOP-62 NSCLC; HOP-92 NSCLC; IGROV1 ovarian; SF-295 CNS; SK-MEL-28 melanoma; SNB-75 CNS; U251 CNS.
Assay in all cases: NCI anticancer screen, dose series, 48 h

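The compound was tested at five concentrations on cells cultured in 96-well plates, with a 48-hour exposure period. GI50 marks 50% less growth. TGI: concentration producing complete growth inhibition.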

With `Clc1cc(Cl)c(Cl)c(-c2nc(-c3cccnc3)cs2)c1`, the GI50 with COLO 205 colon is 13.6 µM; in the assay on HCT-116 colon, 5.3 µM; in the assay on HL-60(TB) leukemia, 14.3 µM; in the assay on HOP-62 NSCLC, 23.5 µM; in the assay with HOP-92 NSCLC it was 15.4 µM; in the assay with IGROV1 ovarian it was 32.8 µM. Also, the GI50 is 26.2 µM in the assay on SF-295 CNS, 12.9 µM with SK-MEL-28 melanoma, 23 µM in the assay with SNB-75 CNS and 37.8 µM with U251 CNS. The TGI with COLO 205 colon was 41.4 µM; in the assay on HCT-116 colon, over 100 µM; with HL-60(TB) leukemia, over 100 µM; in the assay on HOP-62 NSCLC, 83.8 µM; with HOP-92 NSCLC, 48.1 µM; in the assay on IGROV1 ovarian it was over 100 µM. Moreover, the TGI is 70.4 µM in the assay with SF-295 CNS, 34.8 µM with SK-MEL-28 melanoma, 80.6 µM in the assay with SNB-75 CNS and over 100 µM in the assay with U251 CNS.
Consider `Cc1n[nH]c(=S)n1/N=C/c1ccc(F)c(Oc2ccccc2)c1`, for which the GI50 in the assay on COLO 205 colon is 68.1 µM; in the assay with HCT-116 colon it was 36 µM; in the assay on HL-60(TB) leukemia, 48.6 µM; in the assay on HOP-62 NSCLC it was 49.4 µM; with HOP-92 NSCLC, 63.3 µM; in the assay with IGROV1 ovarian it was 62.3 µM. For the same compound, the GI50 in the assay on SF-295 CNS is 57.8 µM; with SK-MEL-28 melanoma it was 7.1 µM; in the assay with SNB-75 CNS it was 45.1 µM; with U251 CNS, 50.3 µM. Also, the TGI in the assay on COLO 205 colon, in the assay with HCT-116 colon, in the assay on HL-60(TB) leukemia, with HOP-62 NSCLC, in the assay with HOP-92 NSCLC and with IGROV1 ovarian was over 100 µM throughout. Also, the TGI with SF-295 CNS was over 100 µM; in the assay on SK-MEL-28 melanoma it was 82.6 µM; in the assay with SNB-75 CNS it was over 100 µM; with U251 CNS, over 100 µM.
Turning to `COc1cc(/C=C/C(=O)c2ccc(Nc3ncnc4ccccc34)cc2)cc(OC)c1`, the GI50 with COLO 205 colon is 9.59 µM; in the assay with HCT-116 colon, 0.346 µM; in the assay on HL-60(TB) leukemia, 3.74 µM; in the assay on HOP-62 NSCLC it was 7.13 µM; with HOP-92 NSCLC it was 1.32 µM; in the assay with IGROV1 ovarian it was 13.5 µM. Further, the GI50 in the assay with SF-295 CNS was 4.31 µM; in the assay on SK-MEL-28 melanoma, 15.4 µM; in the assay on SNB-75 CNS it was 24.1 µM; in the assay with U251 CNS, 2.24 µM. Moreover, the TGI in the assay on COLO 205 colon is 39.8 µM; in the assay on HCT-116 colon it was 1.17 µM; in the assay with HL-60(TB) leukemia it was 30.4 µM; in the assay on HOP-62 NSCLC, 22.1 µM; with HOP-92 NSCLC it was 52.7 µM; in the assay on IGROV1 ovarian, 60.2 µM. Besides, the TGI is 29.2 µM in the assay with SF-295 CNS, 34.4 µM in the assay on SK-MEL-28 melanoma, over 100 µM in the assay with SNB-75 CNS and 6.75 µM with U251 CNS.
With `COc1ccc(/C(C)=C(\c2ccc(Cl)cc2)c2ccc(OCCN3CCCC3)cc2)cc1F`, the GI50 in the assay on COLO 205 colon is 2.16 µM; in the assay with HCT-116 colon, 2.05 µM; in the assay on HL-60(TB) leukemia, 3.54 µM; in the assay on HOP-62 NSCLC it was 3.92 µM; with HOP-92 NSCLC, 3.12 µM; in the assay on IGROV1 ovarian, 3.17 µM. Further, the GI50 in the assay on SF-295 CNS was 2.92 µM; in the assay with SK-MEL-28 melanoma, 3.13 µM; in the assay with SNB-75 CNS it was 4.42 µM; in the assay with U251 CNS, 3.15 µM. Further, the TGI with COLO 205 colon came to 7.49 µM; with HCT-116 colon, 5.64 µM; in the assay on HL-60(TB) leukemia it was 7.89 µM; with HOP-62 NSCLC, 8.22 µM; in the assay on HOP-92 NSCLC, 6.63 µM; with IGROV1 ovarian, 7.21 µM. Besides, the TGI in the assay on SF-295 CNS came to 6.25 µM; with SK-MEL-28 melanoma it was 6.27 µM; with SNB-75 CNS, 8.22 µM; in the assay on U251 CNS it was 7.17 µM.
For `COC(=O)C(C(=O)C(=O)Nc1ccccc1C(C)=O)c1nc2ccc(Cl)cc2[nH]c1=O` (stereo not given), the TGI in the assay on COLO 205 colon, with HCT-116 colon, with HL-60(TB) leukemia, in the assay on HOP-62 NSCLC, in the assay with HOP-92 NSCLC and in the assay with IGROV1 ovarian was over 100 µM throughout. The TGI in the assay with SF-295 CNS, in the assay with SK-MEL-28 melanoma, with SNB-75 CNS and in the assay with U251 CNS was over 100 µM each time.
For the compound `COc1cc(C#N)cc(OC)c1OCCOCCOc1c(OC)cc(C#N)cc1OC`, the GI50 with COLO 205 colon was 37.2 µM; in the assay on HCT-116 colon, over 100 µM; in the assay with HL-60(TB) leukemia, 19 µM; in the assay on HOP-62 NSCLC it was over 100 µM; in the assay with HOP-92 NSCLC, 10.3 µM; in the assay with IGROV1 ovarian it was 89.2 µM. The GI50 in the assay on SF-295 CNS was 84.9 µM; in the assay with SK-MEL-28 melanoma, over 100 µM; with SNB-75 CNS, over 100 µM; with U251 CNS it was over 100 µM. In addition, the TGI was over 100 µM with COLO 205 colon; over 100 µM with HCT-116 colon; 85.7 µM in the assay on HL-60(TB) leukemia; over 100 µM with HOP-62 NSCLC; 78.4 µM in the assay on HOP-92 NSCLC; over 100 µM in the assay with IGROV1 ovarian. Moreover, the TGI in the assay with SF-295 CNS, with SK-MEL-28 melanoma, in the assay with SNB-75 CNS and in the assay with U251 CNS was over 100 µM each time.

These data come from PubChem BioAssay (NCI).
